Measured values: ChEMBL document CHEMBL3608297, “Structure-based de novo design and synthesis of aminothiazole-based p38 MAP kinase inhibitors” (Bioorg Med Chem Lett, 2015)

Biological target: MAP kinase p38 (Homo sapiens, UniProt O15264+Q15759+Q16539+P53778)
Experiment: Inhibition of p38 MAP kinase (unknown origin) by biochemical assay
Type: protein assay

IC50 [nM] | Structure (SMILES)
116000 | Cc1ccccc1C(=O)c1cnc(Nc2ccccc2)s1
> 200000 | Nc1ccc(Nc2ncc(C(=O)c3ccccc3Cl)s2)cc1
1200 | O=C(Nc1cccc(Nc2ncc(C(=O)c3ccccc3Cl)s2)c1)c1ccccc1
1440 | COc1ccc(Nc2ncc(C(=O)c3ccccc3Cl)s2)cc1
910 | O=C(c1cnc(Nc2ccc(Cl)cc2)s1)c1ccccc1Cl
1070 | O=C(c1cnc(Nc2ccccc2)s1)c1ccccc1Br
16200 | Nc1cccc(Nc2ncc(C(=O)c3ccccc3Cl)s2)c1
940 | O=C(c1cnc(Nc2ccc(Br)cc2)s1)c1ccccc1Cl
1230 | COc1cccc(C(=O)c2cnc(Nc3ccccc3)s2)c1
12700 | O=C(c1cnc(Nc2cccc([N+](=O)[O-])c2F)s1)c1ccccc1Cl
1310 | O=C(c1cccc(O)c1)c1cnc(Nc2ccccc2)s1
1620 | O=C(c1cnc(Nc2cccc([N+](=O)[O-])c2)s1)c1ccccc1Cl
1070 | O=C(c1ccccc1)c1cnc(Nc2ccccc2)s1
1980 | O=C(Nc1cccc(Nc2ncc(C(=O)c3ccccc3Cl)s2)c1F)c1ccccc1
330 | O=C(c1cnc(Nc2ccc(F)cc2)s1)c1ccccc1Cl
2040 | O=C(c1cnc(Nc2ccc(O)cc2)s1)c1ccccc1Cl
790 | O=C(c1cnc(Nc2ccccc2F)s1)c1ccccc1Cl
180 | O=C(c1cnc(Nc2ccc(F)cc2F)s1)c1ccccc1Cl
610 | O=C(c1cnc(Nc2ccccc2)s1)c1ccccc1Cl
450 | Nc1cccc(Nc2ncc(C(=O)c3ccccc3Cl)s2)c1F
250 | O=C(c1cnc(Nc2ccc(O)cc2F)s1)c1ccccc1Cl
